In one series the target is GluA2o LBD (Homo sapiens, UniProt P42262). Briefly: SPA binding of [3H]-AMPA to His-LBD. From the text: We previously reported that structural interference at Ser750 in the channel-closed state of GluA2o LBD might be involved in the molecular mechanisms underlying the lower agonistic effect of AMPA-R potentiators with dihydropyridothiadiazine 2,2-dioxide derivatives and discovered TAK-137, 9-(4-phenoxyphenyl)-3,4-dihydropyrido[2,1-c][1,2,4]thiadiazine 2,2-dioxide (Fig. 1A)[16]. […] TAK-653 bound to the intradimer interface formed by the ligand binding core (Fig. 1B). […] Binding affinity of TAK-653 to the GluA2o LBD was measured by a scintillation proximity assay (SPA) using [^3H]-HBT1, a radio-labeled LBD-binding AMPA-R potentiator, and a His-tagged GluA2o LBD protein (His-LBD)[21]. […] Binding of [^3H]-TAK-653 to His-LBD was also measured by SPA.
The SPA assays were performed as previously described, with some modifications. First, 62.5 μg YSi (2–5 μm) copper his-tag SPA beads (PerkinElmer Inc., Waltham, MA) and 0.25 μg His-tagged GluA2o LBD protein (His-LBD) were incubated in 100 μL PBS containing 0.01% NP-40 and 100 μM glutamate for the [^3H]-HBT1/LBD binding assay, containing 0.01% NP-40 and the indicated amount of glutamate for the [^3H]-TAK-653/LBD binding assay or containing 0.001% Triton X-100 for the [^3H]-AMPA/LBD binding assay in 96-well Luminunc plates (Thermo Fisher Scientific Inc.) overnight at 4 °C. Subsequently, test compound and tritium-labeled ligand (40 nM [^3H]-HBT1, 20 nM [^3H]-TAK-653 or 20 nM [^3H]-AMPA) were added to each well. Specific binding was defined as total binding minus nonspecific binding, which was estimated in the presence of 0.25 μg of control protein (His-tagged macrophage MIF protein) instead of His-LBD or in the presence of 3 mM AMPA. Radioactivity derived from the bound radio ligand was measured using a microplate scintillation counter (TopCount NXT, PerkinElmer Inc.).

A further series deals with T1, GluA1i S743A (Homo sapiens, UniProt P42261, S743A).
T1 construct: expressed in transfected cells; host or cells: CHO cells, transient electroporation
Briefly: Ca2+ influx assay in CHO cells expressing GluA1i S743A. Type of series: cell-based. To be noted: at each concentration of glutamate tested (0, 0.3 μM, 1 μM, 3 mM). As to the method: Ca^2+ influx assays using human GluA1/flip and human stargazin co-expressing CHO cells plated at 3 × 10^4 cells/well in 96-well Black Clear plates (Corning Incorporated, Corning, NY) were performed as previously described, with some modifications. For evaluation of the species difference, rat GluA1/flip expressing CHO cells were plated. For mutant channels, the human GluA1i S743A mutant was generated using the In-Fusion HD Cloning Kit (Takara Bio Inc., Kusatsu, Japan) according to the manufacturer's protocol and transiently introduced to CHO cells by Gene Pulser II Electroporation System (Bio-Rad Laboratories, Inc., Hercules, CA). Relative increases of intracellular Ca^2+ levels were monitored for 3 min with a fluorometric imaging plate reader (CellLux, Perkin Elmer Life and Analytical Sciences, Inc., Shelton, CT). […]
Human GluA1/flip and human stargazin co-expressing CHO cells were plated at 3×10^4 cells/well in 96-well Black Clear plate (Corning Incorporated, Corning, NY). […] Relative increases of intracellular Ca^2+ levels by compounds in the presence and absence of 3 mM L-glutamate were monitored for 3 min by fluorometric imaging plate reader (CellLux, Perkin Elmer Life and Analytical Sciences, Inc., Shelton, CT). Activity of compound was defined as integration value of fluorescence value of each detection point. […] EC50 values were calculated by logistic regression analysis.

The next series has as its system rats. Briefly: Evaluation of convulsion. In kind it is in vivo, rat. Particulars: 100 mg/kg, p.o., 4 h after dosing. On the procedure:
The data were extracted from the studies conducted in accordance with the Good Laboratory Practice Regulation. […] The dose levels in the first study and second study were set at "100, 15 and 5 mg/kg, p.o." and "50, 15 and 5 mg/kg, p.o.", respectively. The dosing suspensions were administered into the stomach via a catheter in the morning at the dose volume of 5 mL/kg. Cage side observations to confirm tonic or […] convulsions were conducted before and at 1, 2, 4, 8 and 24 h after dosing in the first study and before and at 1, 4 and 24 h after dosing in the second study.

Chain of GluA2o LBD (P42262 with tags, fused parts or gaps): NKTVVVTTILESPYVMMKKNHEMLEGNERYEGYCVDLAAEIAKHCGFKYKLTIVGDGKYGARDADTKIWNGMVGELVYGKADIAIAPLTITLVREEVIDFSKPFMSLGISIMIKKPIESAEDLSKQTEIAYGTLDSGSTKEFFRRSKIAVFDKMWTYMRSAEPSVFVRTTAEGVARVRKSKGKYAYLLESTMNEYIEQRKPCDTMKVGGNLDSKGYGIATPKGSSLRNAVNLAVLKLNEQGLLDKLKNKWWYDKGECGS
T1 sequence (P42261 19-906 isoform P42261-2 S743A limits assumed): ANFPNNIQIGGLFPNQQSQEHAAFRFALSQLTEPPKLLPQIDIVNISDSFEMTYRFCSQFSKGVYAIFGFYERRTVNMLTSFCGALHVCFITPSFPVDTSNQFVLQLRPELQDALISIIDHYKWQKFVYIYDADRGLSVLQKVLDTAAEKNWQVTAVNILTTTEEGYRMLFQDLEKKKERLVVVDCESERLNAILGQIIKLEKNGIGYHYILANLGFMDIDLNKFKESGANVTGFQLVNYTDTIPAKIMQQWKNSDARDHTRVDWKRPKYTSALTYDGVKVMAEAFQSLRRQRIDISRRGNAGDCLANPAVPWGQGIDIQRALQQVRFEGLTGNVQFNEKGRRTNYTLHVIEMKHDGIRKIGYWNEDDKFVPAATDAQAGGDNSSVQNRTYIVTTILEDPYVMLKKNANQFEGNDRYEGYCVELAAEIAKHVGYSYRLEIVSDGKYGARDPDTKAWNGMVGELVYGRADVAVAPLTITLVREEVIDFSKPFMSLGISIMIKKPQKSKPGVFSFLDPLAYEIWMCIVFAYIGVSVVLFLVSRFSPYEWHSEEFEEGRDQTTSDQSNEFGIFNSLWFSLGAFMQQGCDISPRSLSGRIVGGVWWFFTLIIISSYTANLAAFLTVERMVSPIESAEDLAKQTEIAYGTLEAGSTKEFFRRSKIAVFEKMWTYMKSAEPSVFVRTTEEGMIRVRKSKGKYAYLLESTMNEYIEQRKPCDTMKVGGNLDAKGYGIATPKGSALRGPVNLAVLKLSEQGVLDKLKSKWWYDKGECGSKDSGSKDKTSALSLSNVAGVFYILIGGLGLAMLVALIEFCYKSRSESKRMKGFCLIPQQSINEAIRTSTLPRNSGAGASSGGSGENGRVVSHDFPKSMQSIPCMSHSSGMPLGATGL
T1 sequence (Q9Y698 whole entry partner): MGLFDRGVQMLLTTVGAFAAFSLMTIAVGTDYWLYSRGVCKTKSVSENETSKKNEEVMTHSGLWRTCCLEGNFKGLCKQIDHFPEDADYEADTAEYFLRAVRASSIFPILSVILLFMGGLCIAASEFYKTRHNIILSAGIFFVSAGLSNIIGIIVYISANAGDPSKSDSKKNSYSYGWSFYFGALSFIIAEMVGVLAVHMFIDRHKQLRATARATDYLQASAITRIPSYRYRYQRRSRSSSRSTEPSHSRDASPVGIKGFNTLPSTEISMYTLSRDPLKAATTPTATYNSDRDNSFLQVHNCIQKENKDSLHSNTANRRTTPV

Consider `CC1=CN2CCS(=O)(=O)N=C2C(c2ccc(OC3CCCCC3)cc2)=N1` [TAK-653, 9-[4-(Cyclohexyloxy)phenyl]-7-methyl-3,4-dihydropyrazino[2,1-c][1,2,4]thiadiazine 2,2-dioxide], for which, at GluA2o LBD, the “Inhibition of specific binding of [3H]-AMPA to His-LBD” value was “did not inhibit”. Further, the EC50 on GluA2o LBD (SPA, 20 nM [3H]-AMPA, read-out: EC50 of increase in [3H]-AMPA binding) amounted to 1500 ± 200 nM. In addition, at GluA2o LBD (SPA, 20 nM [3H]-AMPA, read-out: Emax of increase in [3H]-AMPA binding), the Emax worked out at 19.9 ± 3.4%. Moreover, the “Maximum responses in S743A GluA1i versus wild-type GluA1i CHO cells” value on GluA1i S743A is listed as “higher”. Moreover, the Convulsions entry with rats is “chronic and tonic convulsions in 1 animal”.

A word on the EC50: it is the concentration giving half of the maximal effect. As usually defined, the Emax is the maximal effect, on the per cent scale that the assay sets.
